The values below come from paper PMC10348910, “Epigenetic reprogramming of cell cycle genes by ACK1 promotes breast cancer resistance to CDK4/6 inhibitor” (Oncogene, 2023).

Molecules are shown by their SMILES.

Data set [1] in a line: in vitro. To be noted: human.
For data set [2] the following is noted: human, plasma.
A short description of data set [3]: in vitro. To be noted: rat.
Data set [4] deals with advanced ER+/AR+ breast cancer. Details: method as in NCT00755885. To be noted: ref NCT00755885, cited from earlier work.
For the next data set, the system named is AR+ TNBC. Details: method as in PMID 29373071, PMID 25944485. Particulars: cited from earlier work.
A further data set deals with MDA-MB-468 xenografts. The data set can be described thus: MDA-MB-468 xenograft in mammary fat pad. The class given is in vivo, female SCID mice. The procedure: To validate these findings in breast tumors, MDA-MB-468 cells were injected in female SCID mice. Once palpable tumors were formed (5 weeks), mice were treated with vehicle (6% captisol), palbociclib (80 mg/Kg of body weight), (R)-9b (36 mg/Kg of body weight) by oral route, or (R)-9b (24 mg/Kg of body weight) by subcutaneous injection, five times a week.
Fig. 7 ACK1 inhibitor overcomes palbociclib-resistant breast cancer growth and metastasis. A 3 × 10^6 MDA-MB-468 cells were injected in the 4th inguinal mammary fat pad of female SCID mice. Once the tumors were palpable, the mice were treated with either vehicle (Captisol; n = 7), Palbociclib at 80 mg/kg (n = 6), or (R)-9b at 36 mg/Kg (n = 6) orally. In addition, mice were injected with (R)-9b at 24 mg/Kg (n = 7) subcutaneously. Mice were treated five times a week, for 22 days. B, C The tumors were harvested and photographed, and the weights were recorded. D Vehicle or (R)-9b treated breast cancer cells were subjected to ChIP using pY88-H4 antibody, followed by qPCR for CXCR4 gene. E CXCR4 mRNA transcript levels in vehicle or (R)-9b treated MDA-MB-231 cells. 18S rRNA was used as housekeeping gene. F MDA-MB-231 cells were transfected with ACK1 or scrambled siRNA, followed by qRT-PCR to determine CXCR4 mRNA transcript levels. G Representative lung metastatic deposits of MDA-MB-231 cells injected via the tail veins in female SCID mice, treated with either vehicle or 24 mg/Kg (R)-9b orally. H Graphical quantitation of lung metastatic deposit. I and J 5 × 10^5 luciferase expressing 4T1 cells were injected into 4th inguinal mammary fat pad of female BALB/c mice. Once the tumors were palpable, mice were treated with either vehicle or (R)-9b at 24 mg/Kg (n = 3, each) subcutaneously for 2 weeks, five times a week. The metastases were assessed using IVIS. Data are represented as the mean ± SEM. *p < 0.05; **p < 0.01; ***p < 0.001. For (A, C–F, I), p values were calculated using unpaired two-tailed Student’s t test.
All animal experiments were performed using the standards for humane care in accordance with the NIH Guide for the Care and Use of Laboratory Animals. Mice were obtained from Charles River Laboratories and experiments were performed according to IACUC protocols (IACUC # 20180259) approved in writing by Washington University in St. Louis Department of Comparative Medicine (DCM). 1.5 × 10^6 Cal-148 or MCF7, or 3 × 10^6 MDA-MB-468 cells were suspended in 200 µl of PBS with 50% matrigel (BD Biosciences) and were implanted subcutaneously into the mammary fat pad (between fourth and fifth inguinal) of female SCID C.B17 mice (n = 8 per group). Once the tumors were palpable (about 4–5 weeks), mice were randomly chosen for subcutaneous injection (Cal-148 and MCF7; 24 mg/Kg body weight) or given oral gavage with (R)-9b (MCF7; 36 mg/Kg body weight) resuspended in 6% Captisol (or 6% Captisol in PBS as vehicle), five times a week, for 4–5 weeks. Tumor volumes were measured twice a week using calipers. At the end of the study, all mice were humanely euthanized, tumors extracted and weighed.

The subject of a further data set is BT549. The experiment in a line: proliferation assay, trypan blue exclusion. Type of data set: cell-based. Particulars: BT549 (lacking Rb), 96 h. The procedure: (§1) A–F Breast cancer cells were treated with either vehicle or (R)-9b for 48 h; cells were harvested and processed for cell cycle analysis using propidium iodide staining, followed by flow cytometry. G BT549 and H MDA-MB-468 cells were treated with varying drug concentrations of palbociclib or (R)-9b for 96 h and the cell viability assessed using trypan blue exclusion method. I BT549, and J MDA-MB-468 cells were treated with 1 µM palbociclib or (R)-9b for 48 h and subjected to cell cycle analysis using propidium iodide staining, followed by flow-cytometry. Palbociclib-resistant MDA-MB-231 (K) and HCC-1395 (L) were generated and treated with varying drug concentrations of palbociclib or (R)-9b for 96 h and the cell viability assessed using trypan blue exclusion method.
(§2) For proliferation assay, 5 × 10^4 cells were plated in 6-well plate and treated with either vehicle (DMSO) or varying concentrations of (R)-9b or palbociclib in complete media for 96 h and number of viable cells were counted by trypan blue exclusion assay. Breast cancer cell lines were treated with vehicle or varying concentrations of (R)-9b for 72 h. The cells were harvested, washed 2 times with PBS and incubated with 3 ul of Annexin V-FITC antibody according to the manufacturers protocol (BD Biosciences). Five µl Propidium iodide was used to stain necrotic cells. The cells were acquired using the BD FACSCalibur machine (BD Biosciences) and data was analyzed using FlowJo software. Cell cycle analysis was performed as mentioned earlier. Briefly, vehicle or (R)-9b (48 h) treated cells were harvested by trypsinization, washed 2 times with PBS, and fixed using chilled 70% Ethanol for 1 h, followed by 2 washes with PBS. The cell pellets were treated with 50 µl RNase A (100 µg/ml; Sigma) for 15 min at 37 °C and Propidium Iodide (PI; 50 µg/ml, Sigma) was added to these cells, followed by acquisition using BD FACS Canto-II or FACSCalibur machines. The data were analyzed using FlowJo software.

The test system of the next data set is MDA-MB-468. The experiment in a line: proliferation assay, trypan blue exclusion. The class given is cell-based. To be noted: MDA-MB-468 (lacking Rb), 96 h. The method, then:
as §1, §2

Consider `CC(=O)CC(c1ccccc1)c1c(O)c2ccccc2oc1=O` (stereo not shown) [warfarin], for which the recovery was 92.3% in the data set “in vitro [1]” (% Recovery) and 86.7% in the data set “in vitro [3]” (% Recovery). The fraction unbound was 0.0147 in the data set “in vitro [1]” (plasma, % Bound) and 0.0147 in “in vitro [1]” (plasma, % Unbound). Further, the amount remaining at 6 h in “in vitro [1]” (plasma, % Remaining at 6 hr) worked out at 97.8%; in the data set “in vitro [3]” (plasma, % Remaining at 6 hr), 88.2%. Further, in data set [2], the “% Bound” value is on record as 98.53%. In data set [2], the “% Unbound” value is given as 1.47%. In addition, the fraction unbound at 6 h in the data set “in vitro [3]” (plasma, % Bound) is 0.0069; in the data set “in vitro [3]” (plasma, % Unbound), 0.0069.
For `C[C@]12CC[C@H](O)CC1=CC[C@@H]1[C@@H]2CC[C@]2(C)C(c3cccnc3)=CC[C@@H]12` [abiraterone], the clinical benefit rate in data set [4] (in 24 weeks) was 20%. Moreover, in data set [4], the “median progression-free survival duration” value is reported as 2.8 months.
Turning to `CNC(=O)c1ccc(N2C(=S)N(c3ccc(C#N)c(C(F)(F)F)c3)C(=O)C2(C)C)cc1F` [enzalutamide], the clinical benefit rate in the data set on AR+ TNBC (at 16 weeks) is given as 33%. The “median progression-free survival duration” value with AR+ TNBC was 3.3 months.
In the case of `CC(=O)c1c(C)c2cnc(Nc3ccc(N4CCNCC4)cn3)nc2n(C2CCCC2)c1=O` [palbociclib, reference compound], the xenograft tumor growth result in the data set with MDA-MB-468 xenografts (palbociclib 80 mg/Kg oral, (R)-9b 36 mg/Kg oral or 24 mg/Kg subcutaneous, five times a week, 3 weeks) is given as “robust tumor growth”. The “weights of the mice” value in the data set with MDA-MB-468 xenografts (palbociclib 80 mg/Kg, (R)-9b 36 mg/Kg oral or 24 mg/Kg subcutaneous) was “modest decrease in weights”. In addition, the “histology (H&E) of heart, spleen, kidneys and livers” value in the data set on MDA-MB-468 xenografts (palbociclib 80 mg/Kg, (R)-9b oral and subcutaneous) is listed as “did not reveal histological abnormalities”. In addition, the “sensitivity (cell proliferation)” value in the data set with BT549 and in the data set with MDA-MB-468 was “resistant” each time.

For orientation: fraction unbound means the share of the substance not bound to proteins or other matrix. By amount remaining is commonly meant the share of the starting amount still present when the sample was taken. A low value points to a greater loss.
